Experiment: molar heat capacity at constant volume; wn = mass fraction of the nth substance listed
Conditions: Liquid, Vacuum adiabatic calorimetry, w2 = 0.5111

FC(F)C(F)(F)F [pentafluoroethane] + FCF
Conditions | molar heat capacity at constant volume [J/K/mol]
298.15 K, 28366 kPa | 65.48
299.15 K, 7469 kPa | 69.08
299.15 K, 7499 kPa | 69.29
299.15 K, 7541 kPa | 67.28
299.15 K, 29176 kPa | 67.56
299.15 K, 29179 kPa | 67.49
299.15 K, 29186 kPa | 66.05
300.15 K, 8097 kPa | 69.15
300.15 K, 8124 kPa | 67.85
300.15 K, 8166 kPa | 68.07
300.15 K, 29998 kPa | 66.56
300.15 K, 29999 kPa | 65.55
300.15 K, 30003 kPa | 66.7
301.15 K, 8725 kPa | 68.57
301.15 K, 8750 kPa | 68.07
301.15 K, 8791 kPa | 67.92
302.15 K, 9353 kPa | 68.14
302.15 K, 9377 kPa | 68.86
302.15 K, 9417 kPa | 66.99
303.15 K, 9980 kPa | 68.57
303.15 K, 10003 kPa | 68.28
303.15 K, 10042 kPa | 67.2
304.15 K, 10607 kPa | 68.72
304.15 K, 10629 kPa | 66.92
304.15 K, 10667 kPa | 67.49
305.15 K, 11234 kPa | 66.92
305.15 K, 11256 kPa | 67.42
305.15 K, 11292 kPa | 66.05
306.15 K, 11861 kPa | 68.14
306.15 K, 11881 kPa | 66.99
306.15 K, 11917 kPa | 66.2
307.15 K, 12487 kPa | 66.77
307.15 K, 12507 kPa | 67.28
307.15 K, 12541 kPa | 66.92
308.15 K, 13114 kPa | 67.06
308.15 K, 13133 kPa | 67.35
308.15 K, 13165 kPa | 65.84
309.15 K, 13740 kPa | 66.92
309.15 K, 13758 kPa | 67.13
309.15 K, 13790 kPa | 66.12
310.15 K, 14367 kPa | 67.13
310.15 K, 14384 kPa | 66.05
310.15 K, 14414 kPa | 65.91
311.15 K, 14992 kPa | 66.48
311.15 K, 15009 kPa | 66.2
311.15 K, 15038 kPa | 65.84
312.15 K, 15618 kPa | 64.9
312.15 K, 15634 kPa | 67.13

— the NIST ThermoML archive (doi:10.1007/s10765-008-0535-5)
